No end group written: not given here.

Assay [1] in a line: Single-channel current recording in planar phospholipid bilayer membranes. The settings on record: voltage clamp, peptide added to one side, pH 7.4. The method, then: Planar phospholipid bilayer membranes were formed as described by Mirzabekov et al. (1999) Meth. Enzymol. 294: 61-74. A bubble of lipid dissolved in heptane was placed at the end of a small (100-300 μm) Teflon tube. Silver/silver chloride electrodes connected the aqueous components bounding the membrane to a voltage clamp. Ion-channel currents through the membrane were recorded by an Axopatch amplifier (Axon Instruments, Sunnyvale, Calif.). Data were filtered at 1 kHz and stored on VHS tape. Membrane capacitance and resistance were monitored continuously to ensure the formation and stability of reproducible membranes and the proper membrane thickness. […] Peptide samples were introduced by perfusing the aqueous solution bounding one side of the membrane.

The target in assay [2] is T1, channels formed by the 42-residue AbP1-42 (Homo sapiens, UniProt P05067).
T1 construct: the channels formed by the 42-residue AbP1-42
T1 sequence (P05067 672-713 limits assumed): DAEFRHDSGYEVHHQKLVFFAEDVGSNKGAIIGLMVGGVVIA
In words: Liposomes reconstituted with AbP1-42 channels, channel block. It counts as biochemical. An excerpt: (§1) In certain embodiments binding of test agents can be detected by detecting alterations (e.g., decrease) of ion (e.g., Ca^2+) uptake by a cell, oocytes, or liposome in the presence of the test agent(s)-uptake in to the liposomes. This can readily be detected using for example a radio-isotope (e.g., 45Ca^2+) or a calcium sensitive dye (e.g., arsenazo III (AIII), Fura-2, Fluo-3, Fluo-4, Calcium green, etc.).
(§2) Using liposomes reconstituted with AbP channels in the membrane, one can screen for compounds that block AbP channels.

The nature of assay [3]: IV curve conductance across lipid bilayer suspended over silicon chip nanopore. The following applies: 0.2 mg/ml, 135 mM KCl, bilayer only 0.025 nS. The protocol:
In order to study the sealing effect of the bilayer over the nanopores in the chip, lipid vesicles were deposited over to chips. After 30 minutes for a bilayer to form from vesicular fusion, the excess unadsorbed lipids and vesicles were rinsed away from the surface. Bulk electrical conductance across the supported nanopore chip and the overlying adsorbed lipid bilayer was measured using a drop of 135 mM KCl solution on top of the chip in which the AFM tip holder assembly was submerged and 135 mM KCl under the nitride membrane. The IV curve measured was near flat and indicates a conductance across the bilayer of 0.025 nS. To check for the possibility of using the nanopore chip to measure ion channel conductance, Gramicidin (a known ion channel forming peptide) was added to the solution at a concentration of 0.2 mg/ml. The effect of Gramicidin on conductance is shown in FIG. 18, while applying a 1V bias to the bottom electrode under the silicon nitride membrane.
For all samples, nano pore membranes were mounted on plastic liquid cells to exchange fluid above or below the membrane. IV curves were obtained in 135 mM KCl solution. Current was measured using the conductive AFM setup with the cantilevered tip holder as an electrode on the top and a reference electrode under the pore-chip (FIG. 20). In absence of an insulating coat, when buffer was present on both sides of the chip, current is measured through the complete tip holder clip. To image current only through the AFM tip apex, conductance was measured with 135 mM KCl solution only under the pore chip and a flow of humid air was maintained over the top surface. This set up also ensured that, by allowing only a local water meniscus between tip and the sample, only the local conductance through each pore was measured.
AFM was also used to image pores after deposition of lipid vesicles (DOPC) prepared by previously described method (Lin et al. (1999) Biochemistry, 38: 11189-11196). Briefly, vesicles were formed by drying 1 mg of DOPC lipid in a glass tube, kept in a desiccator overnight, and rehydrated in buffer with occasional sonication. For vesicle deposition a droplet (50 micro liter, 1 mg/ml) of vesicles was placed on the pore chip, allowed to adsorb for 30 minutes, and rinsed with buffer. After bilayer deposition and before IV measurements, ionic strength was brought back to 135 mM KCl both on top as well as below the pore chip to keep the bilayer hydrated properly, and current was measured through the tip holder. Once a proper seal was achieved by the bilayer, Gramicidin, an ion channel forming peptide (dissolved in milliQ water with 135 mM KCl), was added to the buffer solution, and the current was measured as a function of time while gramicidin interacted with the bilayer.

Assay [4] has as its target T2, channels formed by the 40 residue AbP1-40 (Homo sapiens, UniProt P05067).
T2 construct: the channels formed by the 40 residue AbP1-40
Put plainly: 45Ca2+ uptake into liposomes reconstituted with AbP1-40 channels. In kind it is biochemical.
From the text: as §1, §2

The test system of assay [5] is AbP ion channels. In words: Ca2+ influx through AbP ion channels incorporated into unilaminar liposomes. It counts as biochemical, human. An excerpt: Consistent with these discoveries, we have shown that AbP ion channels mediate Ca^2+ influx when incorporated into unilaminar liposomes, and the Ca^2+ influx was blocked by Zn^2+ and an anti-AbP antibody.
Assay [6] has as its system AbP ion channels. In words: AbP-induced toxicity in cultured cells. In kind it is cell-based. The settings on record: blocking Ca2+ influx through AbP ion channels.

T2 sequence (P05067 672-711 limits assumed): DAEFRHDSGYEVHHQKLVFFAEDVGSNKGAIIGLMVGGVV

Turning to amyloid-β(1-40) [Aβ(1-40)], in assay [1], the “induction of single-channel ion currents / conductances” value is “Current jumps corresponding to the opening or closing of individual ion channels can be observed”.

With “islet amyloid polypeptide (KCNTATCATQRLANFLVHSSNNFGAILSSTNVGSNTY; not fully specified (C-terminus, bridges); cysteine pairing not given here; UniProt P10997 34-70, looked up) [Amylin, amyloid peptide synthesized by N-t-butyloxycarbonyl chemistry]”, in assay [1], the “induction of single-channel ion currents / conductances” value was “Current jumps corresponding to the opening or closing of individual ion channels can be observed”.

For `NC(CO)(CO)CO` [Tris], the “block of AbP1-42 channels” value in assay [2] was “blocked”.

Turning to Gramicidin, the “conductance after addition of Gramicidin” value in assay [3] (10 seconds after addition) is recorded as 0.25 nS; in assay [3] (2 minutes after addition), 0.5 nS; in assay [3] (4 minutes after addition), 1 nS; in assay [3] (4 minutes after addition, listed as gramicidin), “roughly 1 nS”.

Consider NAC: NAC (α-synuclein 60-95), for which, in assay [1], the “induction of single-channel ion currents / conductances” value is “Current jumps corresponding to the opening or closing of individual ion channels can be observed”.

Turning to `[Zn+2]` [Zn^2+], in assay [4], the “block of AbP1-40 channels and inhibition of 45Ca2+ uptake into the liposomes” value is listed as “blocks the channels”. In addition, the “block of AbP1-42 channels” value in assay [2] is recorded as “blocked”. Further, the “block of Ca2+ influx mediated by AbP ion channels” value in the assay with AbP ion channels [5] was “blocked”. Besides, the “effect on AbP-induced toxicity” value in the assay with AbP ion channels [6] is given as “inhibited AbP-induced toxicity”.

For the origin of these results see patent US20070238184A1, “Amyloid beta protein channel structure and uses thereof in identifying potential drug molecules for neurodegenerative diseases” (The Regents of the University of California, priority 2005, published 2007).
